Assay results as given in US20030055106A1, “Therapeutic uses of peroxometallic compounds” (priority 1999, published 2003).

Legend:
[1] = test system: vitelline membrane of chick embryos; assay: Embryonic vascularization test (EVT) ex ovo; assay type: in vivo; settings: for approximate IC50, neovascularization (regardless of the scoring system): per methylcellulose disc
Source text: FIG. 2: A and B show an anti-angiogenic response to bpV(phen), orthovanadate (Van) and protamine (Prot) using a vascularization test on the vitelline membrane of chick embryos. Each point represents a minimum of 15 embryos (15 to 28).
The normal development of a chick embryo involves the formation of an external vascular system which is located in the vitelline membrane and which carries nutrients from the vitellus (yolk of the egg) to the developing embryo. When placed onto the vitelline membrane, anti-angiogenic substances can inhibit blood vessel development in the vitelline membrane. To facilitate access to the vitelline membrane, chick embryos were transferred to a sterile culture box (Petri dish) and placed in a humidity- and temperature-controlled incubator. Embryos could then develop in this ex ovo condition for several days.
An aliquot of the tested compound was mixed with a methylcellulose solution and allowed to air-dry into thin discs. Methylcellulose forms an inert matrix from which the tested compound can diffuse slowly. Methylcellulose discs containing the tested compound were placed on the external border of the vascular perimeter of the vitelline membrane where the angiogenic process was still active.
The effects of the discs containing the tested compound on proximal vascular development were, in all cases, compared with those of discs containing control buffer. The discs were placed on the embryos' vitelline membrane on Day 0 or Day 1 of the ex ovo growth process; at this point, only beginnings of the main blood vessels are invading the vitellus. The embryos were then put in culture conditions until vascularization was assessed (approximately 24 h). Control buffer- and compound-containing discs were in all cases added simultaneously on the vitelline membrane of the same embryo. Both discs were arranged in a symmetrical fashion with respect to the cephalo-caudal axis of the embryo in order to minimize inter-individual variations when comparing the tested compounds with controls.
[…] After one day in culture, the level of vascularization in the area covered by the discs was graded by a pair of scientists in the usual blind fashion. To facilitate the location of the discs, black O-rings were placed around them just after their placement on the vitelline membrane. The evaluation scale for the EVTs was based on two different scoring systems.
Blood vessel formation was assessed in a blind fashion. The areas of the vitelline membranes that lay beneath the methylcellulose discs were scored for the degree of vascularization, using two scoring systems (“N/+” or “1-2-3”). The following selection criteria were used:
A score of “N” for “Normal” was attributed when all the following conditions were met:
Blood vessels in the evaluated area grew along their path with no abnormal deviation. Collateral branching density was normal and the growth path of the lateral branches was also normal.
A score of “+” was attributed when at least one of the following conditions was met:
1-2-3 Grading Scale System:
A score of 3 was attributed when the following conditions were met:
A score of 2 was attributed when at least one of the following conditions was met:
A score of 1 was attributed when at least one of the following conditions was met:
A score of 3 meant that blood vessel development was normal whereas a score of 1 indicated the greatest degree of angiostatic activity.

[2] = test system: ETs (ET-1, ET-2, ET-3); assay: Plasma endothelin levels after insulin (RIA); assay type: in vivo; settings: rats; two minutes after insulin 1.5 μg/100 g b.w.; no bpV(phen)
Experimental: The data presented in Table III show the effect of bpV(phen) on the plasmatic levels of ETs. […] Two minutes following insulin administration (1.5 μg/100 g b.w, or vehicle), the plasma levels of ETs were determined. Insulin administration induced a strong increase of seric ET concentration (54). […] In addition, bpV(phen) decreased the insulin-stimulated levels of plasmatic ETs below control levels. […] ETs (ET-1, ET-2, ET-3) were measured by RIA (Amersham kit RPA 555) after lyophilization and extraction on C2 columns (500 mg). Results are mean ±SEM, p<0.0209, control (n=4) vs Insulin, pV (n=3).

[3] = test system: Human umbilical vein endothelial cells (HUVECs); settings: read-out: approximate IC50, endothelial cell proliferation; 96 hours in culture
Experimental: Each experiment was performed in triplicate. The culture medium was changed daily.

[4] = test system: HUVECs; assay: HUVEC differentiation and organization into tubular-like structures in fibrin matrix; assay type: cell-based, Human; design: key to cords / tubes / Stell. struct.: †: Dead cells
Experimental: Alternatively, HUVECs cultured in a fibrin matrix can form 3-dimensional tubular-like structures in the presence of serum (103). This assay was performed in the presence of either bpV(phen), bpv(pic) or vanadate to assess the influence of each one of these compounds on HUVEC differentiation and organization (Table 1). HUVECs were seeded on the bottom of gelatin-coated wells at high density to provide a confluent monolayer at 48 hours.
Then, 50 000 HUVECs/ml were embedded in fibrinogen solution prior to polymerization. The fibrin matrix was covered with culture medium containing the molecule to be tested, while culture medium without any of these molecules served as controls. Cell behavior was observed periodically by phase contrast microscopy.

[5] = test system: Rat aorta rings; assay: Rat aortic ring assay (cell/microvessel migration in fibrin gel); assay type: cell-based
Source text: FIG. 3: Micrographs of the cell migration from aortic rings embedded in fibrin (×12).
FIG. 4: Quantification of the cell migration from aortic rings in the presence of orthovanadate (plain bars); bpV(phen) (light gray bars); and bpV(pic) (dark gray bars). The control appears as an empty bar. Means and standard errors of the means are presented.
Rat aorta rings were embedded in fibrin matrix as previously described (107). Thoracic aortas excised from adult rats were rinsed in Hank's balanced salt solution (HBSS), and cleansed of periadventitial. One-mm long aortic rings were sectioned and rinsed in culture medium. Each of the aortic rings were then embedded in fibrin gel matrix. Migration of microvessels in fibrin gel was quantified by measuring the distance from the external surface of rat aortic rings towards the migrating vessels. Measurements were performed at day 15 by digitizing morphometry with a NIH image analysis system (FIGS. 3 and 4).

[6] = test system: left carotid artery; assay: Balloon angioplasty of the left carotid artery (restenosis); assay type: in vivo, Male Sprague-Dawley rats
Experimental: The data presented in Table IV show the effect of the pV compound bpV(bipy) on restenosis. Male Sprague-Dawley rats (325-350 g) were anaesthetized with Rogarsetic, a mixture of ketamine hydrochloride and xylazine hydrochloride. The animals were divided into two groups of 14-31 rats that underwent balloon angioplasty of the left carotid artery, with or without treatment (108). The treated group received bpV (bipy) (10 mg/kg/i.p. b.i.d.) for 14 days, starting on the day of the angioplasty. Every animal in each group underwent balloon angioplasty of the left external carotid whereas the contra-lateral carotid served as a control for each animal. The left carotid artery balloon angioplasty was performed under aseptic conditions. The left external carotid was isolated and an arteriotomy was performed. A 2F Fogarty arterial embolectomy catheter was then inserted in the left common carotid and positioned near the aortic arch. The balloon was then inflated and retracted with a twisting motion to its insertion point. This procedure was repeated twice and the external carotid was ligated. There were no differences in the lumina (L), intima (I), media (M), the ratio of I/M and calculated value of (M−L/P) as a measure of neointimal proliferation (NIP) between normal, non-ballooned carotid artery of treated and non-treated rats, serving as controls (data not shown).

[7] = anti-angiogenic effect on stellate structures
[8] = 10 mg/kg/i.p. b.i.d. for 14 days, ballooned left carotid
[9] = treated vs non-treated, 10 mg/kg/i.p. b.i.d. 14 days

Molecule: Protamine
- Anti-angio.activity 1 to 3 (1: no angiogenesis; 3: normal angiogenesis) ([1]; 5 μg, Assay 1): 2.3
- Anti-angio.activity % (proportion of embryos showing an anti-angiogenic response) ([1]; 5 μg, Assay 1): 23%
- Anti-angio.activity 1 to 3 (1: no angiogenesis; 3: normal angiogenesis) ([1]; 5 μg, Assay 4): 2.3
- Anti-angio.activity % (proportion of embryos showing an anti-angiogenic response) ([1]; 5 μg, Assay 4): 9%
- Anti-angio.activity 1 to 3 (1: no angiogenesis; 3: normal angiogenesis) ([1]; 5 μg, Assay 5): 2.3
- Anti-angio.activity % (proportion of embryos showing an anti-angiogenic response) ([1]; 5 μg, Assay 5): 16%
- Anti-angio.activity 1 to 3 (1: no angiogenesis; 3: normal angiogenesis) ([1]; 10 μg, Assay 4): 2.1
- Anti-angio.activity % (proportion of embryos showing an anti-angiogenic response) ([1]; 10 μg, Assay 4): 54%
- Anti-angio.activity 1 to 3 (1: no angiogenesis; 3: normal angiogenesis) ([1]; 10 μg, Assay 5): 2.1
- Anti-angio.activity % (proportion of embryos showing an anti-angiogenic response) ([1]; 10 μg, Assay 5): 54%
- Anti-angio.activity 1 to 3 (1: no angiogenesis; 3: normal angiogenesis) ([1]; 20 μg, Assay 1): 2.0
- Anti-angio.activity % (proportion of embryos showing an anti-angiogenic response) ([1]; 20 μg, Assay 1): 46%
- Anti-angio.activity 1 to 3 (1: no angiogenesis; 3: normal angiogenesis) ([1]; 20 μg, Assay 2): 1.5
- Anti-angio.activity % (proportion of embryos showing an anti-angiogenic response) ([1]; 20 μg, Assay 2): 80%
- Anti-angio.activity 1 to 3 (1: no angiogenesis; 3: normal angiogenesis) ([1]; 20 μg, Assay 3): 1.5
- Anti-angio.activity % (proportion of embryos showing an anti-angiogenic response) ([1]; 20 μg, Assay 3): 79%
- Anti-angio.activity 1 to 3 (1: no angiogenesis; 3: normal angiogenesis) ([1]; 20 μg, Assay 4): 1.8
- Anti-angio.activity % (proportion of embryos showing an anti-angiogenic response) ([1]; 20 μg, Assay 4): 80%
- Anti-angio.activity 1 to 3 (1: no angiogenesis; 3: normal angiogenesis) ([1]; 20 μg, Assay 5): 1.7
- Anti-angio.activity % (proportion of embryos showing an anti-angiogenic response) ([1]; 20 μg, Assay 5): 71%
- Anti-angio.activity 1 to 3 (1: no angiogenesis; 3: normal angiogenesis) ([1]; 30 μg, Assay 4): 1.8
- Anti-angio.activity % (proportion of embryos showing an anti-angiogenic response) ([1]; 30 μg, Assay 4): 67%
- Anti-angio.activity 1 to 3 (1: no angiogenesis; 3: normal angiogenesis) ([1]; 30 μg, Assay 5): 1.8
- Anti-angio.activity % (proportion of embryos showing an anti-angiogenic response) ([1]; 30 μg, Assay 5): 67%
- approximate IC50, neovascularization (regardless of the scoring system) [1]: ~11 µg

Molecule: Insulin: insulin administered to rats to induce an increase of ET concentration
- Plasma endothelins [2]: 253.10 pg/mL

Molecule: O=C(O)c1ccccn1.OO.OO.[K+].[K+].[O]=[V] [bpV(pic), potassium bisperoxo(pyridine-2-carboxylato)oxovanadate]
- IC50 [3]: ~3.5 µM
- structures observed by phase contrast microscopy ([4]; 1, 2 and 3.5 μM): cords and tubes were observed
- cell migration from aortic rings ([5]; 10-25 μM): inhibition was seen

Molecule: [O]=[V]([O-])([O-])[O-] [orthovanadate]
- structures observed by phase contrast microscopy ([4]; 10 μM): cords were still apparent
- Stell. struct. ([4]; 25 μM): †
- cords ([4]; 25 μM): †
- structures observed by phase contrast microscopy ([4]; 25 μM): dead cells were sparsely distributed
- tubes ([4]; 25 μM): †
- times less potent than bpV(phen) [4, 7]: ≥ 5 times
- times less potent than bpV(pic) [4, 7]: at least 3 times
- cell migration from aortic rings ([5]; 3.5 μM): no effect
- cell migration from aortic rings ([5]; 25 μM): partial inhibition
- Anti-angio.activity 1 to 3 (1: no angiogenesis; 3: normal angiogenesis) ([1]; 0.001 μg, Assay 3): 2.8
- Anti-angio.activity % (proportion of embryos showing an anti-angiogenic response) ([1]; 0.001 μg, Assay 3): 7%
- Anti-angio.activity 1 to 3 (1: no angiogenesis; 3: normal angiogenesis) ([1]; 0.001 μg, Assay 5): 2.8
- Anti-angio.activity % (proportion of embryos showing an anti-angiogenic response) ([1]; 0.001 μg, Assay 5): 7%
- Anti-angio.activity 1 to 3 (1: no angiogenesis; 3: normal angiogenesis) ([1]; 0.01 μg, Assay 3): 2.4
- Anti-angio.activity % (proportion of embryos showing an anti-angiogenic response) ([1]; 0.01 μg, Assay 3): 24%
- Anti-angio.activity 1 to 3 (1: no angiogenesis; 3: normal angiogenesis) ([1]; 0.01 μg, Assay 5): 2.4
- Anti-angio.activity % (proportion of embryos showing an anti-angiogenic response) ([1]; 0.01 μg, Assay 5): 24%
- Anti-angio.activity 1 to 3 (1: no angiogenesis; 3: normal angiogenesis) ([1]; 0.1 μg, Assay 3): 2.4
- Anti-angio.activity % (proportion of embryos showing an anti-angiogenic response) ([1]; 0.1 μg, Assay 3): 28%
- Anti-angio.activity 1 to 3 (1: no angiogenesis; 3: normal angiogenesis) ([1]; 0.1 μg, Assay 5): 2.4
- Anti-angio.activity % (proportion of embryos showing an anti-angiogenic response) ([1]; 0.1 μg, Assay 5): 28%
- Anti-angio.activity 1 to 3 (1: no angiogenesis; 3: normal angiogenesis) ([1]; 1 μg, Assay 3): 2.0
- Anti-angio.activity % (proportion of embryos showing an anti-angiogenic response) ([1]; 1 μg, Assay 3): 70%
- Anti-angio.activity 1 to 3 (1: no angiogenesis; 3: normal angiogenesis) ([1]; 1 μg, Assay 4): 1.7
- Anti-angio.activity % (proportion of embryos showing an anti-angiogenic response) ([1]; 1 μg, Assay 4): 57%
- Anti-angio.activity 1 to 3 (1: no angiogenesis; 3: normal angiogenesis) ([1]; 1 μg, Assay 5): 1.9
- Anti-angio.activity % (proportion of embryos showing an anti-angiogenic response) ([1]; 1 μg, Assay 5): 64%
- approximate IC50, neovascularization (regardless of the scoring system) [1]: ~0.6 µg

Molecule: [K+].[O]=[V-]12([O][O]1)[O][O]2.c1ccc(-c2ccccn2)nc1 [bpV(bipy), potassium bisperoxo(2,2′-bipyridyl) oxovanadate]
- I (intima) [6, 8]: 0.112 mm^2
- I/M [6, 8]: 1.086
- L (lumina) [6, 8]: 0.112 mm^2
- M (media) [6, 8]: 0.104
- NIP (neointimal proliferation) [6, 8]: 0.045 mm
- decrease in NIP [6, 9]: 32%
- decrease in the I/M ratio [6, 9]: 32%
- increase in the opening of the L [6, 9]: 28%
- reduction in the thickness of the I [6, 9]: 21%
